Experimental data: patent publication US9943473B2, “Zinc lysine halide complex” (Colgate-Palmolive Company, priority 2012, dated 2018)

What was measured:
[1] = Hydrolysis reaction: pH and turbidity of diluted ZLC solutions before and after aging; type: physicochemical; settings: for pH after aging / turbidity after aging: aged at 37° C. over 5 hours
Description: A 185 mg/ml solution of ZLC is prepared and diluted several-fold and aged in a 37° C. oven over 5 hours for turbidity studies. […] Turbidity of the solutions is measured using a nephelometer, results being given in nephelometric turbidity units (NTU).
The precipitates formed in the 8×, 16× and 32× diluted solutions are collected by centrifugation and identified as crystalline ZnO by PXRD. From the supernatant, a single crystal is grown and shown by X-ray diffraction to be Lysine Monohydrochloride Dihydrate (Lysine.HCl.2H2O).

[2] = target: Bovine Serum Albumin (BSA) (Bos taurus, UniProt P02769); experiment: Flocculation of ZLC in the presence of protein (turbidity, pH); settings: ZLC about 15 mg/ml, 5 hours at 37° C.
Description: Turbidity and pH of solutions are measured 5 hours after the mixtures were placed in a 37° C. oven, and the results are shown in Table 6.

[3] = system: S. aureus; experiment: Zone of inhibition test on TSA plates; type: cell-based
Description: (§1) A zone of inhibition test is conducted on several materials: zinc oxide and amino acid hydrohalide alone and a mixture formed from zinc oxide and amino acid hydrohalide. The method involves making a lawn of freshly prepared bacterial culture on TSA (trypticase soy agar) plates. Sterile filter paper discs are seeded with 20 μl of test sample (supernatant or mixture). Sample-coated filter paper discs are air dried and applied onto the bacterial lawn on TSA plates. Plates are incubated for 20 hours at 37° C.

[4] = system: C. minutissimum; experiment: Zone of inhibition test on TSA plates; type: cell-based
Description: as §1

[5] = system: S. epider.; experiment: Zone of inhibition test on TSA plates; type: cell-based
Description: as §1

[6] = system: C. xerosis; experiment: Zone of inhibition test on TSA plates; type: cell-based
Description: as §1

[7] = general description; cited from earlier work
[8] = sample 1: DI water, 0% BSA, pH 6.4
[9] = Table 3, sample form not stated

Bovine Serum Albumin (BSA), sequence (P02769 25-607): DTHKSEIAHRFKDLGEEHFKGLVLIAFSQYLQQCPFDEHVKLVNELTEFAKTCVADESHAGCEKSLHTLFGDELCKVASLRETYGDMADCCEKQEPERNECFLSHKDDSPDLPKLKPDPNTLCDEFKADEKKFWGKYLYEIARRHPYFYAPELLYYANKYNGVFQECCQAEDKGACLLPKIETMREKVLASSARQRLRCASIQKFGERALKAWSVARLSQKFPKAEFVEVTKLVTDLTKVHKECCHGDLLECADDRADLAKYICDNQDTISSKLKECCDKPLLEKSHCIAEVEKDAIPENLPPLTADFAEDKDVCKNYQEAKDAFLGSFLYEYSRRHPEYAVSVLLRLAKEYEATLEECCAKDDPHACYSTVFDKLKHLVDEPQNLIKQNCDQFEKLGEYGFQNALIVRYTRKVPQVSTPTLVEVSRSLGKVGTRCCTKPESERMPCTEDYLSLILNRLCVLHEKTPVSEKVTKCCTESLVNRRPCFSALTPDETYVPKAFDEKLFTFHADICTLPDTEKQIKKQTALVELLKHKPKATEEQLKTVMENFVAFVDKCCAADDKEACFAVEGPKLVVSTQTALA

SMILES: NCCCCC(N)C(=O)O.NCCCCC(N)C(=O)O.O.O.[Cl-].[Cl-].[Zn+2] (stereo not drawn) [ZLC, [Zn(Lysine)2Cl]^+Cl^−.2H2O]
- initial turbidity ([1]; 5.78 mg/ml): 40.1 NTU
- pH after aging ([1]; 5.78 mg/ml): 8
- turbidity after aging ([1]; 5.78 mg/ml): >1000 NTU
- initial turbidity ([1]; 11.56 mg/ml): 14.8 NTU
- pH after aging ([1]; 11.56 mg/ml): 7.8
- turbidity after aging ([1]; 11.56 mg/ml): >1000 NTU
- initial turbidity ([1]; 23.125 mg/ml): 0.7 NTU
- pH after aging ([1]; 23.125 mg/ml): 7.7
- turbidity after aging ([1]; 23.125 mg/ml): 247.4 NTU
- initial turbidity ([1]; 46.25 mg/ml): 1.5 NTU
- pH after aging ([1]; 46.25 mg/ml): 7.4
- turbidity after aging ([1]; 46.25 mg/ml): 2.8 NTU
- initial turbidity ([1]; 92.5 mg/ml): 2.8 NTU
- pH after aging ([1]; 92.5 mg/ml): 7
- turbidity after aging ([1]; 92.5 mg/ml): 2.6 NTU
- initial turbidity ([1]; 185 mg/ml): 4.7 NTU
- pH after aging ([1]; 185 mg/ml): 6.8
- turbidity after aging ([1]; 185 mg/ml): 4.1 NTU
- stability of the complex upon dilution ([1]; 8×, 16× and 32× diluted solutions, precipitate identified as crystalline ZnO by PXRD): disassociates upon dilution, with consequent precipitation of zinc oxide
- Turbidity [2, 8]: 357 NTU
- pH [2, 8]: 8
- Turbidity ([2]; sample 2: 1% BSA, pH 7.2): >1000 NTU
- pH ([2]; sample 2: 1% BSA, pH 7.2): 8.2
- Turbidity ([2]; sample 3: 1% BSA, pH adjusted to 5.1): >1000 NTU

SMILES: N=C(N)NCCC[C@H](N)C(=O)O [Arginine 4%, arginine]
- Zone of Inhibition [3, 9]: 0 mm
- Zone of Inhibition [4, 9]: 0 mm

SMILES: [O]=[Zn] [ZnO(4%), zinc oxide]
- Zone of Inhibition ([5]; Dry Sample, Mixture): 10 mm
- Zone of Inhibition ([5]; Dry Sample, Supernatant): 0 mm
- Zone of Inhibition ([5]; Wet Sample, Mixture): 12 mm
- Zone of Inhibition ([5]; Wet Sample, Supernatant): 0 mm
- Zone of Inhibition ([3]; Dry Sample, Mixture): 7 mm
- Zone of Inhibition ([3]; Dry Sample, Supernatant): 0 mm
- Zone of Inhibition ([3]; Wet Sample, Mixture): 7 mm
- Zone of Inhibition ([3]; Wet Sample, Supernatant): 0 mm
- Zone of Inhibition ([6]; Dry Sample, Mixture): 0 mm
- Zone of Inhibition ([6]; Dry Sample, Supernatant): 0 mm
- Zone of Inhibition ([6]; Wet Sample, Mixture): 0 mm
- Zone of Inhibition ([6]; Wet Sample, Supernatant): 0 mm
- solubility in water [7]: insoluble in water

SMILES: Cl.NCCCC[C@H](N)C(=O)O [Lysine-HCl 23.2%, lysine hydrochloride]
- Zone of Inhibition ([5]; Dry Sample, As is): 0 mm
- Zone of Inhibition ([5]; Wet Sample, As is): 0 mm
- Zone of Inhibition ([3]; Dry Sample, As is): 0 mm
- Zone of Inhibition [3, 9]: 0 mm
- Zone of Inhibition ([3]; Wet Sample, As is): 0 mm
- Zone of Inhibition [4, 9]: 0 mm
- Zone of Inhibition ([6]; Dry Sample, As is): 0 mm
- Zone of Inhibition ([6]; Wet Sample, As is): 0 mm

SMILES: NCCCC[C@H](N)C(=O)O [Lysine 4%, lysine]
- Zone of Inhibition [3, 9]: 0 mm
- Zone of Inhibition [4, 9]: 0 mm

SMILES: [Cl-].[Cl-].[OH-].[OH-].[OH-].[OH-].[OH-].[OH-].[OH-].[OH-].[Zn+2].[Zn+2].[Zn+2].[Zn+2].[Zn+2] [TBZC (4%), zinc chloride hydroxide monohydrate]
- Zone of Inhibition ([4]; Table 3, Mixture): 7 mm
- Zone of Inhibition ([4]; Table 3, Supernat): 7 mm
